Measured values taken from patent US9725469B2, “Amino-oxazine and amino-dihydrothiazine compounds as beta-secretase modulators and methods of use” (Amgen Inc., priority 2012, dated 2017).

Legend:
Abeta 40 = assay: In vivo inhibition of beta-secretase: Abeta 40 reduction in rat CSF and brain; conditions: after 4 hrs; for % reduction of rat CSF Abeta 40 levels at 10 mpk: Abeta 40, rat CSF; for % reduction of rat brain levels at 10 mpk: Abeta 40, rat brain
Description: In Vivo Inhibition of Beta-Secretase
Several animal models, including mouse, rat, dog, and monkey, may be used to screen for inhibition of beta-secretase activity in vivo following administration of a test compound sample. Animals used in this invention can be wild type, transgenic, or gene knockout animals. For example, the Tg2576 mouse model, prepared and conducted as described in Hsiao et al., 1996, Science 274, 99-102, and other non-transgenic or gene knockout animals are useful to analyze in vivo inhibition of Amyloid beta peptide (Abeta) production in the presence of inhibitory test compounds. Generally, 2 to 18 month old Tg2576 mice, gene knockout mice or non-transgenic animals are administered test compounds formulated in vehicles, such as cyclodextran, phosphate buffers, hydroxypropyl methylcellulose or other suitable vehicles. One to twenty-four hours following the administration of compound, animals are sacrificed, and brains as well as cerebrospinal fluid (CSF) and plasma are removed for analysis of A-beta levels and drug or test compound concentrations (Dovey et al., 2001, Journal of Neurochemistry, 76, 173-181) Beginning at time 0, animals are administered by oral gavage, or other means of delivery such as intravenous injection, an inhibitory test compound of up to 100 mg/kg in a standard, conventional formulation, such as 2% hydroxypropyl methylcellulose, 1% Tween80. A separate group of animals receive 2% hydroxypropyl methylcellulose, 1% Tween80 alone, containing no test compound, and serve as a vehicle-control group. At the end of the test period, animals are sacrificed and brain tissues, plasma or cerebrospinal fluid are collected. Brains are either homogenized in 10 volumes (w/v) of 0.2% diethylamine (DEA) in 50 mM NaCl (Best et al., 2005, Journal of Pharmacology and Experimental Therapeutics, 313, 902-908), or in 10 volumes of 0.5% TritonX-100 in Tris-buffered saline (pH at about 7.6). Homogenates are centrifuged at 355,000 g, 4° C. for 30 minutes. CSF or brain supernatants are then analyzed for the presence of A-beta peptide by specific sandwich ELISA assays based on ECL (Electrochemiluminescence) technology. For example, rat Abeta40 is measured using biotinylated-4G8 (Signet) as a capture antibody and Fab40 (an in-house antibody specific to the C-terminal of Abeta40) as a detection antibody. For example, 4 hours after administration of 30 mg/kg oral dose of the test compound in 2% hydroxypropyl methylcellulose, 1% Tween80 (pH2.2) to 200 g male Sprague Dawley rats, amyloid beta peptide levels are measured for reduction by X % and Y % in cerebrospinal fluid and brain, respectively, when compared to the levels measured in the vehicle-treated rats.
Actual vehicles used: Oral: 2% HPMC, 1% Tween80, pH 2.2
The compounds of the invention may be shown to reduce the formation and/or deposition of amyloid beta peptide in the cerebrospinal fluid (CSF) as well as in the brain of a mouse or rat at either 3 mpk, 10 mpk or 30 mpk (mpk=mg compound per kg weight of the animal) dosing concentrations after 4 hrs.

[1] = tested on: Aβ40 in conditioned medium of cells stably expressing Amyloid Precursor Protein (APP); assay: In vitro BACE cell-based assay (HEK cell assay, Aβ40 sandwich ELISA); conditions: Homo sapiens, HEK293; average IC50, Aβ40, 24 h incubation
Procedure: In Vitro BACE Cell-Based Assay
The cell-based assay measures inhibition or reduction of Aβ40 in conditioned medium of test compound treated cells expressing amyloid precursor protein.
Cells stably expressing Amyloid Precursor Protein (APP) were plated at a density of 40K cells/well in 96 well plates (Costar). The cells were cultivated for 24 hours at 37° C. and 5% CO2 in DMEM supplemented with 10% FBS. The test compounds were then added to cells in 10-point dose response concentrations with the starting concentration being either 100 μM or 10 μM. The compounds were diluted from stock solutions in DMSO and the final DMSO concentration of the test compounds on cells was 0.1%. After 24 h of incubation with the test compounds the supernatant conditioned media was collected and the Aβ 40 levels were determined using a sandwich ELISA. The IC50 of the compound was calculated from the percent of control or percent inhibition of Aβ 40 as a function of the concentration of the test compound.
The sandwich ELISA to detect Aβ 40 was performed in 96 well microtiter plates, which were pre-treated with goat anti-rabbit IgG (Pierce). The capture and detecting antibody pair that were used to detect Aβ 40 from cell supernatants were affinity purified pAb40 (Biosource) and biotinylated 6E10 (Signet Labs Inc.), respectively. The optimal concentration for the pAb40 antibody was 3 μg/ml in Superblock/TBS (Pierce) that was supplemented with 0.05% Tween 20 (Sigma). Optimal concentration for the detection antibody 6E10-biotinylated was 0.5 μg/ml in Superblock/TBS (Pierce) that had been supplemented with 2% normal goat serum and 2% normal mouse serum.
Cellular supernatants were incubated with the capture antibody for 3 h at 4° C., followed by 3 wash steps in TBS-tween (0.05%). The detecting antibody incubation was for 2 h at 4° C., again followed by the wash steps as described previously. The final readout of the ELISA is Time-Resolved Fluorescence (counts per minute) using Delfia reagents Streptavidin-Europium and Enhancement solutions (Perkin Elmer) and the Victor 2 multilabel counter (Perkin Elmer).

[2] = target: BACE 1 (beta secretase enzyme) (Homo sapiens, UniProt P56817); assay: In vitro enzymatic BACE FRET assay; type: biochemical; conditions: average IC50, pH 4.2
Procedure: In Vitro Enzymatic BACE FRET (Fluorescence Resonance Energy Transfer) Assay
The assay buffer used in this screen is 0.05 M acetate, pH 4.2, 10% DMSO final, 100 uM genapol (which is a nonionic detergent, below its Critical Micelle Concentration). The beta secretase enzyme (0.2 nM) is pre-incubated for one hour with inhibitors, typically in about 1 uL of DMSO according to a serial dilution, are added thereto. This assay is effectively started by the addition of FRET substrate (50 nM) and the combination is incubated for one hour. The FRET assay is terminated with by addition of Tris buffer, which raises the pH to neutrality, and the fluorescence is determined. The FRET substrate is a peptide with commercially available fluorophore and quencher, on opposite sides of the BACE cleavage site. Proteolytic cleavage of the FRET substrate releases quenching of fluorescence (excitation […] and […]).

Cathepsin D = target: T1, Cathepsin D (Homo sapiens, UniProt P07339); assay: In vitro enzymatic Cat D (Cathepsin D) FRET assay; type: biochemical; conditions: average IC50, pH 3.5
T1 construct: made in house; host or cells: CHO cells
Procedure: In Vitro Enzymatic Cat D (Cathepsin D) FRET (Fluorescence Resonance Energy Transfer) Assay
Recombinant CathepsinD was expressed in CHO cells. The assay buffer for CathepsinD is 0.05 M citrate pH 3.5, 10% DMSO final, 5 mM CHAPS. The CathepsinD enzyme (9 nM) is pre-incubated for one hour with inhibitors, typically in about 1 uL of DMSO according to a serial dilution, is added thereto. The assays are effectively started by the addition of different FRET substrates (20 nM for CathepsinD) and the combination is incubated for one hour. The FRET assay is terminated with by addition of Tris buffer, which raises the pH to neutrality, and the fluorescence is determined. The FRET substrate is a peptide with commercially available fluorophore and quencher, on opposite sides of the BACE cleavage site. The CathepsinD substrate peptide sequence is based on sequence #1 of Table 1 from Gulnik et al. FEBS Letters v413 p 379-384 1997. Proteolytic cleavage of the FRET substrate releases quenching of fluorescence (CathepsinD excitation 500 nm and emission 580 nm). […]

[3] = people of the terminated Ph I dosing trial; cited from earlier work
[4] = tested on: pigment epithelium of the rat's eye; conditions: higher compound dose given for three months; cited from earlier work
beta amyloid = conditions: patients in early stages of Alzheimer's Disease; cited from earlier work

Sequence of BACE 1 (beta secretase enzyme) (P56817 46-501): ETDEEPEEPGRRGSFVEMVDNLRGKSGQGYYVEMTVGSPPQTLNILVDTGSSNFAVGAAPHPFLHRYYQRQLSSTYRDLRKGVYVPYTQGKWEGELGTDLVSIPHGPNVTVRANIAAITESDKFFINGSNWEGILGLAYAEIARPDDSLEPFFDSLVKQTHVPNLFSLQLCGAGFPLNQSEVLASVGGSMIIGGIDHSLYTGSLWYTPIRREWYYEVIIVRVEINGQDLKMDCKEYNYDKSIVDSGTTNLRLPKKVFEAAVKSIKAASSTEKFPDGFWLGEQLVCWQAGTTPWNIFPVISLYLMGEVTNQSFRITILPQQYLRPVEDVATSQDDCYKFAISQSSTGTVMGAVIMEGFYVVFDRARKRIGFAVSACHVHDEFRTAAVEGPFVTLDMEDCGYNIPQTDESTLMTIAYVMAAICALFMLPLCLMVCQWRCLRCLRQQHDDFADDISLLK
T1 sequence (P07339 65-412, species assumed): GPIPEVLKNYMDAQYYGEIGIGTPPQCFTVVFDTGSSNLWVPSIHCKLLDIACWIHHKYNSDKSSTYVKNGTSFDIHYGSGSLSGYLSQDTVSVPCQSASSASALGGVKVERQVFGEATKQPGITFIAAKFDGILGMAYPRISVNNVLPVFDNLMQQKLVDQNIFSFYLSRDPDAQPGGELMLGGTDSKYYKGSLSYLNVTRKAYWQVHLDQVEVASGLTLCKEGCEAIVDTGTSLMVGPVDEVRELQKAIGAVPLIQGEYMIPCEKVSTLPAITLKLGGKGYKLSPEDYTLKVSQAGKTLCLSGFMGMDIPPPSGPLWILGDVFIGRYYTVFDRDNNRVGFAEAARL

C=C(C)c1cc2c(cn1)Oc1ccc(Nc3nccc4cc(OC)cnc34)cc1[C@@]21CCOC(N)=N1 [Example 37, (5S)-N~7~-(3-methoxy-1,7-naphthyridin-8-yl)-3-(1-methylethenyl)-5′,6′-dihydrospiro[chromeno[2,3-c]pyridine-5,4′-[l,3]oxazine]-2′,7-diamine]
% reduction of rat CSF Abeta 40 levels at 10 mpk (Abeta 40): 38% | % reduction of rat brain levels at 10 mpk (Abeta 40): 32% | IC50 [1]: 0.0038 µM | IC50 [2]: 0.0178 µM | IC50 (Cathepsin D): 546 µM

COc1cnc2c(Nc3ccc4c(c3)[C@@]3(CCOC(N)=N3)c3cc(C5CC5)ncc3O4)nccc2c1 [Example 38]
% reduction of rat CSF Abeta 40 levels at 10 mpk (Abeta 40): 39% | % reduction of rat brain levels at 10 mpk (Abeta 40): 25% | IC50 [1]: 0.002 µM | IC50 [2]: 0.0179 µM | IC50 (Cathepsin D): 400 µM

C[C@@]1(c2cc(-c3cncnc3)c(F)cc2F)CCSC(N)=N1 [LY 2811376]
eye assessments in people [3]: did not show any abnormalities | eye toxicity finding in rat [4]: damaged the pigment epithelium of the rat's eye

Solanezumab: a monoclonal antibody which targets and binds to the central region of beta amyloid; Phase III clinical molecule
slowing of the rate of cognitive decline and memory loss (beta amyloid): approximately 30%
